Data reported in PubChem BioAssay (NCI).
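Values below derive from 48-hour exposures of cells grown in 96-well plates, with endpoints linearly interpolated between the two concentrations bracketing the appropriate inhibition level. TGI denotes the concentration required for complete inhibition of growth.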

Columns and labels:
Experiment in all cases: NCI-60 cell line screen, 48 h
M14 melanoma = test system: M14 melanoma
SNB-75 CNS = test system: SNB-75 CNS
SK-MEL-2 melanoma = test system: SK-MEL-2 melanoma
RXF 393 renal = test system: RXF 393 renal
786-0 renal = test system: 786-0 renal
TK-10 renal = test system: TK-10 renal
K-562 leukemia = test system: K-562 leukemia
HOP-92 NSCLC = test system: HOP-92 NSCLC
SF-268 CNS = test system: SF-268 CNS
HOP-62 NSCLC = test system: HOP-62 NSCLC
PC-3 prostate = test system: PC-3 prostate
NCI/ADR-RES ovarian = test system: NCI/ADR-RES ovarian
T-47D breast = test system: T-47D breast
SNB-19 CNS = test system: SNB-19 CNS
SN12C renal = test system: SN12C renal
KM12 colon = test system: KM12 colon
OVCAR-8 ovarian = test system: OVCAR-8 ovarian
HCT-116 colon = test system: HCT-116 colon
U251 CNS = test system: U251 CNS
BT-549 breast = test system: BT-549 breast
COLO 205 colon = test system: COLO 205 colon
NCI-H23 lung = test system: NCI-H23 lung
RPMI-8226 leukemia = test system: RPMI-8226 leukemia
MDA-MB-435 = test system: MDA-MB-435
SK-MEL-28 melanoma = test system: SK-MEL-28 melanoma
HCT-15 colon = test system: HCT-15 colon
CAKI-1 renal = test system: CAKI-1 renal
EKVX NSCLC = test system: EKVX NSCLC
A549 NSCLC = test system: A549 NSCLC
MOLT-4 leukemia = test system: MOLT-4 leukemia
UACC-257 melanoma = test system: UACC-257 melanoma
DU-145 prostate = test system: DU-145 prostate
SF-295 CNS = test system: SF-295 CNS
MDA-N = test system: MDA-N
HT29 colon = test system: HT29 colon
MCF7 breast = test system: MCF7 breast
OVCAR-3 ovarian = test system: OVCAR-3 ovarian
A498 renal = test system: A498 renal
SW-620 colon = test system: SW-620 colon
MDA-MB-231 breast = test system: MDA-MB-231 breast
HCC-2998 colon = test system: HCC-2998 colon
SK-MEL-5 melanoma = test system: SK-MEL-5 melanoma
SK-OV-3 ovarian = test system: SK-OV-3 ovarian
ACHN renal = test system: ACHN renal
SR leukemia = test system: SR leukemia
MALME-3M melanoma = test system: MALME-3M melanoma
UO-31 renal = test system: UO-31 renal
OVCAR-4 ovarian = test system: OVCAR-4 ovarian
IGROV1 ovarian = test system: IGROV1 ovarian
NCI-H460 lung = test system: NCI-H460 lung
NCI-H226 lung = test system: NCI-H226 lung
LOX IMVI melanoma = test system: LOX IMVI melanoma
OVCAR-5 ovarian = test system: OVCAR-5 ovarian
NCI-H522 lung = test system: NCI-H522 lung
UACC-62 melanoma = test system: UACC-62 melanoma
SF-539 CNS = test system: SF-539 CNS
CCRF-CEM leukemia = test system: CCRF-CEM leukemia

## O=C1Nc2ccc(Cl)cc2C(=O)N2CCC[C@@H]12
M14 melanoma
  TGI: > 100 µM
SNB-75 CNS
  TGI: > 100 µM
SK-MEL-2 melanoma
  TGI: > 100 µM
RXF 393 renal
  TGI: > 100 µM
786-0 renal
  TGI: > 100 µM
TK-10 renal
  TGI: > 100 µM
K-562 leukemia
  TGI: > 100 µM
HOP-92 NSCLC
  TGI: > 100 µM
SF-268 CNS
  TGI: > 100 µM
HOP-62 NSCLC
  TGI: > 100 µM
PC-3 prostate
  TGI: > 100 µM
NCI/ADR-RES ovarian
  TGI: > 100 µM
T-47D breast
  TGI: > 100 µM
SNB-19 CNS
  TGI: > 100 µM
SN12C renal
  TGI: > 100 µM
KM12 colon
  TGI: > 100 µM
OVCAR-8 ovarian
  TGI: > 100 µM
HCT-116 colon
  TGI: > 100 µM
U251 CNS
  TGI: > 100 µM
BT-549 breast
  TGI: > 100 µM
COLO 205 colon
  TGI: > 100 µM
NCI-H23 lung
  TGI: > 100 µM
RPMI-8226 leukemia
  TGI: > 100 µM
MDA-MB-435
  TGI: > 100 µM
SK-MEL-28 melanoma
  TGI: > 100 µM
HCT-15 colon
  TGI: > 100 µM
CAKI-1 renal
  TGI: > 100 µM
EKVX NSCLC
  TGI: > 100 µM
A549 NSCLC
  TGI: > 100 µM
MOLT-4 leukemia
  TGI: > 100 µM
UACC-257 melanoma
  TGI: > 100 µM
DU-145 prostate
  TGI: > 100 µM
SF-295 CNS
  TGI: > 100 µM
MDA-N
  TGI: > 100 µM
HT29 colon
  TGI: > 100 µM
MCF7 breast
  TGI: > 100 µM
OVCAR-3 ovarian
  TGI: > 100 µM
A498 renal
  TGI: > 100 µM
SW-620 colon
  TGI: > 100 µM
MDA-MB-231 breast
  TGI: > 100 µM
HCC-2998 colon
  TGI: > 100 µM
SK-MEL-5 melanoma
  TGI: > 100 µM
SK-OV-3 ovarian
  TGI: > 100 µM
ACHN renal
  TGI: > 100 µM
SR leukemia
  TGI: > 100 µM
MALME-3M melanoma
  TGI: > 100 µM
UO-31 renal
  TGI: > 100 µM
OVCAR-4 ovarian
  TGI: > 100 µM
IGROV1 ovarian
  TGI: > 100 µM
NCI-H460 lung
  TGI: > 100 µM
NCI-H226 lung
  TGI: > 100 µM
LOX IMVI melanoma
  TGI: > 100 µM
OVCAR-5 ovarian
  TGI: > 100 µM
NCI-H522 lung
  TGI: > 100 µM
UACC-62 melanoma
  TGI: > 100 µM

## CCOc1ccccc1N1CSc2nnc(-c3ccccc3)n2C1
M14 melanoma
  TGI: > 100 µM
SK-MEL-2 melanoma
  TGI: > 100 µM
RXF 393 renal
  TGI: > 100 µM
786-0 renal
  TGI: > 100 µM
TK-10 renal
  TGI: > 100 µM
K-562 leukemia
  TGI: > 100 µM
HOP-92 NSCLC
  TGI: > 100 µM
SF-268 CNS
  TGI: > 100 µM
HOP-62 NSCLC
  TGI: > 100 µM
PC-3 prostate
  TGI: > 100 µM
SF-539 CNS
  TGI: > 100 µM
NCI/ADR-RES ovarian
  TGI: > 100 µM
T-47D breast
  TGI: > 100 µM
SN12C renal
  TGI: > 100 µM
KM12 colon
  TGI: > 100 µM
OVCAR-8 ovarian
  TGI: > 100 µM
HCT-116 colon
  TGI: > 100 µM
U251 CNS
  TGI: > 100 µM
BT-549 breast
  TGI: > 100 µM
COLO 205 colon
  TGI: > 100 µM
NCI-H23 lung
  TGI: > 100 µM
RPMI-8226 leukemia
  TGI: > 100 µM
MDA-MB-435
  TGI: > 100 µM
SK-MEL-28 melanoma
  TGI: > 100 µM
HCT-15 colon
  TGI: > 100 µM
CAKI-1 renal
  TGI: > 100 µM
A549 NSCLC
  TGI: > 100 µM
MOLT-4 leukemia
  TGI: > 100 µM
UACC-257 melanoma
  TGI: > 100 µM
DU-145 prostate
  TGI: > 100 µM
SF-295 CNS
  TGI: > 100 µM
MDA-N
  TGI: > 100 µM
HT29 colon
  TGI: > 100 µM
MCF7 breast
  TGI: > 100 µM
OVCAR-3 ovarian
  TGI: > 100 µM
A498 renal
  TGI: > 100 µM
SW-620 colon
  TGI: > 100 µM
MDA-MB-231 breast
  TGI: > 100 µM
HCC-2998 colon
  TGI: > 100 µM
SK-MEL-5 melanoma
  TGI: > 100 µM
SK-OV-3 ovarian
  TGI: > 100 µM
ACHN renal
  TGI: > 100 µM
SR leukemia
  TGI: > 100 µM
MALME-3M melanoma
  TGI: > 100 µM
UO-31 renal
  TGI: > 100 µM
CCRF-CEM leukemia
  TGI: 49.9 µM
OVCAR-4 ovarian
  TGI: > 100 µM
IGROV1 ovarian
  TGI: > 100 µM
NCI-H460 lung
  TGI: > 100 µM
NCI-H226 lung
  TGI: > 100 µM
OVCAR-5 ovarian
  TGI: > 100 µM
NCI-H522 lung
  TGI: > 100 µM
UACC-62 melanoma
  TGI: > 100 µM
